{"source": "patent US10730836B2", "about": "“Forms of apremilast” (Johnson Matthey Public Limited Company, priority 2016, dated 2020)", "key": {"[1]": {"experiment": "Solid form stability under stressed conditions (45° C., relative humidity>95%)", "format": "physicochemical", "details": "under 45° C. and humid conditions (relative humidity>95%)", "procedure": "Apremilast Form H, a solvate, is a unique crystalline phase. […] FIG. 1 is a representative XPRD pattern for a representative sample of apremilast Form H made according to Example 1. Apremilast Form H is stable under stressed conditions, i.e. at under 45° C. and humid conditions (relative humidity>95%).\nApremilast Form I, a solvate, is a unique crystalline phase. […] FIG. 2 is a representative XRPD pattern for a representative sample of apremilast Form I made according to Example 2. Apremilast Form I is stable under stressed conditions, i.e. at under 45° C. and humid conditions (relative humidity>95%)."}, "[2]": {"experiment": "Drying under vacuum at 45° C. (solid form change)", "format": "physicochemical", "details": "dried under vacuum at 45° C.", "procedure": "Apremilast Form J, a solvate, is a unique crystalline phase. […] FIG. 3 is a representative XRPD pattern for a representative sample of apremilast Form J made according to Example 3.\n(§1) Apremilast Form M, a solvate, is a unique crystalline phase. FIG. 5 is a representative XRPD pattern for a representative sample of apremilast Form M made according to Example 5.\n[…] The resulting solids are analyzed by XRPD and identified as apremilast Form K."}, "phosphodiesterase (PDE4)": {"test_system": "phosphodiesterase (PDE4)", "details": "cited from earlier work"}, "[3]": {"test_system": "human rheumatoid synovial cells", "details": "cited from earlier work"}, "[4]": {"experiment": "Moisture uptake on exposure to air (DSC/TGA)", "format": "physicochemical", "details": "DSC thermogram and TGA plot show water in sample", "procedure": "DSC data were collected using a TA Instruments Q10 DSC. Approximately, samples (2-8 mg) were placed in unsealed but covered hermetic alodined aluminum sample pans and scanned from 30 to 300° C. at a rate of 10° C./min under a nitrogen purge of 50 mL/min.\nTGA data were collected using a TA Instruments TGA Q500. Approximately, samples (5-10 mg) were placed in an open, pre-tared aluminum sample pan and scanned from 25 to 300° C. at a rate of 10° C./min using a nitrogen purge at 60 mL/min.\n(§2) Apremilast Form K, an anhydrous form, is a unique crystalline phase. […] FIG. 4 is a representative XRPD pattern for a representative sample of apremilast Form K made according to Example 4."}, "[5]": {"experiment": "Exposure to humidity (XRPD)", "format": "physicochemical", "details": "exposed to high humidity", "procedure": "(§3) XRPD patterns were obtained using a Bruker D8 Advance equipped with a Cu Kα radiation source (λ=1.54° A), a 9-position sample holder and a LYNXEYE super speed detector. Samples were placed on zero-background, silicon plate holders for analysis. One skilled in the art would recognize that the ° 2θ values and the relative intensity values are generated by performing a peak search on the measured data and the d-spacing values are calculated by the instrument from the ° 2θ values using Bragg's equation. One skilled in the art would further recognize that the relative intensity for the measured peaks may vary as a result of sample preparation, orientation and instrument used, for example.\nas §2, §1"}, "[6]": {"experiment": "Prolonged slurry (form conversion, XRPD)", "format": "physicochemical", "details": "XRPD FIG. 6", "procedure": "as §3, §1"}}}
{"molecule": "CCOc1cc([C@@H](CS(C)(=O)=O)N2C(=O)c3cccc(NC(C)=O)c3C2=O)ccc1OC", "note": "[Apremilast Form H, (+)-2-[1-(3-ethoxy-4-methoxyphenyl)-2-methylsulfonylethyl]-4-acetylaminoisoindoline-1,3-dione]", "values": [{"measurement": "stability under stressed conditions", "setting": "[1]", "result": "stable"}]}
{"molecule": "CCOc1cc([C@@H](CS(C)(=O)=O)N2C(=O)c3cccc(NC(C)=O)c3C2=O)ccc1OC", "note": "[Apremilast Form J, (+)-2-[1-(3-ethoxy-4-methoxyphenyl)-2-methylsulfonylethyl]-4-acetylaminoisoindoline-1,3-dione]", "values": [{"measurement": "solid form behaviour when dried under vacuum", "setting": "[2]", "result": "loses formic acid when dried under vacuum at 45 °C and undergoes a form change, resulting in the anhydrous Form K"}]}
{"molecule": "CCOc1cc([C@@H](CS(C)(=O)=O)N2C(=O)c3cccc(NC(C)=O)c3C2=O)ccc1OC", "note": "[Apremilast, (+)-2-[1-(3-ethoxy-4-methoxyphenyl)-2-methylsulfonylethyl]-4-acetylaminoisoindoline-1,3-dione]", "values": [{"measurement": "PDE4 inhibition", "setting": "phosphodiesterase (PDE4)", "result": "inhibits PDE4"}, {"measurement": "inhibition of spontaneous production of TNF-alpha", "setting": "[3]", "result": "inhibits spontaneous production of TNF-alpha"}]}
{"molecule": "CCOc1cc([C@@H](CS(C)(=O)=O)N2C(=O)c3cccc(NC(C)=O)c3C2=O)ccc1OC", "note": "[Form K, (+)-2-[1-(3-ethoxy-4-methoxyphenyl)-2-methylsulfonylethyl]-4-acetylaminoisoindoline-1,3-dione]", "values": [{"measurement": "moisture uptake when exposed to air", "setting": "[4]", "result": "picks up moisture"}, {"measurement": "form change when exposed to humidity", "setting": "[5]", "result": "does not undergo a significant change"}]}
{"molecule": "CCOc1cc([C@@H](CS(C)(=O)=O)N2C(=O)c3cccc(NC(C)=O)c3C2=O)ccc1OC", "note": "[Form M, (+)-2-[1-(3-ethoxy-4-methoxyphenyl)-2-methylsulfonylethyl]-4-acetylaminoisoindoline-1,3-dione]", "values": [{"measurement": "form conversion upon prolonged slurry", "setting": "[6]", "result": "converts to apremilast"}, {"measurement": "solid form behaviour when dried under vacuum", "setting": "[2]", "result": "tends to lose some of the acetic acid when dried under vacuum at 45 °C and results in a semi-crystalline form"}]}
